Source: patent US10087185B2 (Janssen Pharmaceutica NV, priority 2016, dated 2018)

Molecular target: TARP γ8 dependent AMPA receptor (GRIA1o-CACNG8 fusion construct) (Homo sapiens (Human), UniProt P42261+Q8WXS5)
Assay: Calcium flux assay (FLIPR), inhibition of glutamate response of GluA1o-γ8 channel
Format: cell-based
Conditions: HEK293 cells stably expressing GRIA1o-CACNG8 fusion; calcium flux after 15 μM glutamate; negative log of the IC50 in molar
Summary of the method: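 HEK293 clonal line stably expressing a GRIA1o-CACNG8 fusion (1:1 GluA1o:γ8), loaded with Calcium-5/6 dye plus compound in HEPES buffer pH 7.4. FLIPR calcium flux read after 15 μM glutamate; normalized to no-compound and 10 μM CP465022 controls. Four-parameter logistic fit gives IC50, reported as pIC50.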

Sequence of TARP γ8 dependent AMPA receptor (GRIA1o-CACNG8 fusion construct) (P42261 other isoform, or with tags, fused parts or gaps): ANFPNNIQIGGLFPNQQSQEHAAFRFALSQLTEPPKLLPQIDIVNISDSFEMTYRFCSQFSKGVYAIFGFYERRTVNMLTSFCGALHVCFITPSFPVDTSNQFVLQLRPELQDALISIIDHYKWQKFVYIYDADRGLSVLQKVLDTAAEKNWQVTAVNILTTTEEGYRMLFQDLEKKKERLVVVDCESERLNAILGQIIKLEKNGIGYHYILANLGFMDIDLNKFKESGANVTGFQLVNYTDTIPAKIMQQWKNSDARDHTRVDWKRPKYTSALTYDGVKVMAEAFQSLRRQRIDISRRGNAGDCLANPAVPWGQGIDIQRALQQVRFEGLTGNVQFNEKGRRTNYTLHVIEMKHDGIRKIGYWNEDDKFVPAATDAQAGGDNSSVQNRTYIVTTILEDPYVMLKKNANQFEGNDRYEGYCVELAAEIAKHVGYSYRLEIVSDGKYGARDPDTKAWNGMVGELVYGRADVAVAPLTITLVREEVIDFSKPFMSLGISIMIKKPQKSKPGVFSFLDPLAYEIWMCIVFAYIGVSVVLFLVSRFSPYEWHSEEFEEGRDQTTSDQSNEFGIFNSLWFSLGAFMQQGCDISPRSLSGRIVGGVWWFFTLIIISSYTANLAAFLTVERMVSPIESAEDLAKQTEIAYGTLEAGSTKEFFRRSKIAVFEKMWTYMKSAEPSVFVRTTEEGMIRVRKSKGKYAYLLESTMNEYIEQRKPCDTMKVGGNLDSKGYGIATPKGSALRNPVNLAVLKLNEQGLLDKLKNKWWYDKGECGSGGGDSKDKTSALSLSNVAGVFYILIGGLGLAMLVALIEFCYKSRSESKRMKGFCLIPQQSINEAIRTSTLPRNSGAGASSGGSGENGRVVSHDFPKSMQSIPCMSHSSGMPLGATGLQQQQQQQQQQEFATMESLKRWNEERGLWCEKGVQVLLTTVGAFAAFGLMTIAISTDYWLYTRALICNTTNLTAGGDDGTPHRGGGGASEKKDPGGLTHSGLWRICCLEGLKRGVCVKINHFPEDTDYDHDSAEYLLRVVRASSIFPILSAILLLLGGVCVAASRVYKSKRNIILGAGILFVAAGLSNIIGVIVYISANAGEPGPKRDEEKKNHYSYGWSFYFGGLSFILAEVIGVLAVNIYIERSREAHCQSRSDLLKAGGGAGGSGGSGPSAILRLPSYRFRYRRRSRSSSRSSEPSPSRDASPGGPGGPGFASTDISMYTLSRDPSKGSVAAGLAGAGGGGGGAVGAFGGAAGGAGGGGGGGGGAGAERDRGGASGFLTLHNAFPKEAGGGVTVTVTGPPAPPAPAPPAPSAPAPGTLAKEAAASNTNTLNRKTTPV

IC50	SMILES
0.794 nM	O=c1[nH]c2ccc(-c3c(C(F)(F)F)ccc4nc(C(F)F)nn34)cc2s1 [Example 54, 6-(2-(Difluoromethyl)-6-(trifluoromethyl)-[1,2,4]triazolo[1,5-a]pyridin-5-yl)benzo[d]thiazol-2(3H)-one]
0.316 nM	Cc1cc(-c2c(C(F)(F)F)cc(C)c3nc(C(F)(F)F)nn23)cc2c1NC(=O)C2 [Example 105, 7-Methyl-5-(8-methyl-2,6-bis(trifluoromethyl)-[1,2,4]triazolo[1,5-a]pyridin-5-yl)indolin-2-one]
1.58 nM	CCc1nc2c(C)cc(C(F)(F)F)c(-c3cc4c(c(C(F)(F)F)c3)NC(=O)C4)n2n1 [Example 102, 5-(2-Ethyl-8-methyl-6-(trifluoromethyl)-[1,2,4]triazolo[1,5-a]pyridin-5-yl)-7-(trifluoromethyl)indolin-2-one]
0.0794 nM	CC(C)c1nc2ccc(C(F)(F)F)c(-c3cc(Cl)c4[nH]ncc4c3)n2n1 [Example 36, 5-(7-Chloro-1H-indazol-5-yl)-2-isopropyl-6-(trifluoromethyl)-[1,2,4]triazolo[1,5-a]pyridine]
0.251 nM	Cc1cc(-c2c(C(F)(F)F)cc(C)c3nc(C4CC4)nn23)cc2c1NC(=O)C2 [Example 99, 5-(2-Cyclopropyl-8-methyl-6-(trifluoromethyl)-[1,2,4]triazolo[1,5-a]pyridin-5-yl)-7-methylindolin-2-one]
